According to PubChem BioAssay (NCI):
Values joined by “and” are separate entries in the source; they are usually repeats but may differ in a detail not shown here. Equal entries are not always repeated.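 Grown in 96-well plates, cells were treated for 48 hours with each compound at five concentrations. Insufficient inhibition: endpoint recorded as highest concentration tested. At the GI50, growth is halved. TGI marks complete inhibition of growth.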

How the values were obtained:
Test in all cases: DTP human tumour cell line panel, 48 h
LOX IMVI melanoma = test system: LOX IMVI melanoma
NCI-H23 lung = test system: NCI-H23 lung
SW-620 colon = test system: SW-620 colon
HCT-116 colon = test system: HCT-116 colon
SN12C renal = test system: SN12C renal
M14 melanoma = test system: M14 melanoma
HCT-15 colon = test system: HCT-15 colon
786-0 renal = test system: 786-0 renal
KM12 colon = test system: KM12 colon
OVCAR-8 ovarian = test system: OVCAR-8 ovarian

Structure (SMILES) | GI50 (LOX IMVI melanoma) | TGI (LOX IMVI melanoma) | GI50 (NCI-H23 lung) | TGI (NCI-H23 lung) | GI50 (SW-620 colon) | TGI (SW-620 colon) | GI50 (HCT-116 colon) | TGI (HCT-116 colon) | GI50 (SN12C renal) | TGI (SN12C renal) | GI50 (M14 melanoma) | TGI (M14 melanoma) | GI50 (HCT-15 colon) | TGI (HCT-15 colon) | GI50 (786-0 renal) | TGI (786-0 renal) | GI50 (KM12 colon) | TGI (KM12 colon) | GI50 (OVCAR-8 ovarian) | TGI (OVCAR-8 ovarian)
Cc1cc(S(=O)(=O)Nc2nc3cc(Cl)ccc3o2)c(SCc2ccccc2)cc1Cl | 21.4 µM | 48.9 µM | 26.5 µM | 54.2 µM | 19.2 µM | 38.5 µM | 18.7 µM | 42.7 µM | 22 µM | 49.5 µM | 22.1 µM | 43.9 µM | 8.28 µM | 25 µM | 20.1 µM | 38 µM | 18.9 µM | 45.5 µM | 4.18 µM | 26.1 µM
O=C(CCl)Nc1cc(O)c2c(c1)C(=O)c1cccc(O)c1C2=O | 0.166 µM | 0.623 µM | 1.13 µM | 3.45 µM | 1.1 µM | 3.95 µM | 0.646 µM | 2.12 µM | 0.68 µM | 1.98 µM | 1.25 µM | 3.45 µM | 0.62 µM | 2.01 µM | 1.99 µM | 4.16 µM | 1.74 µM | 3.4 µM | 2.09 µM | 7.65 µM
C#CCN(C)C(=O)N(CC#C)N=O |  | > 100 µM |  | > 100 µM |  | > 100 µM |  | > 100 µM |  | > 100 µM |  | > 100 µM |  | > 100 µM |  | > 100 µM |  | > 100 µM |  | > 100 µM
CC(C)(C)C(=O)OCc1nc2cc3c(cc2c(=O)[nH]1)CCC3=O | > 100 µM | > 100 µM | > 100 µM | > 100 µM | > 100 µM | > 100 µM | > 100 µM | > 100 µM | > 100 µM | > 100 µM | > 100 µM | > 100 µM | > 100 µM | > 100 µM | > 100 µM | > 100 µM | > 100 µM | > 100 µM | > 100 µM | > 100 µM
O=C(Nc1cccc(C(F)(F)F)c1)c1cc(Br)cc(Br)c1O |  | 4.95 µM |  | 5.27 µM |  | > 10 µM |  | 5.44 µM |  | > 10 µM |  | > 10 µM |  | > 10 µM |  | > 10 µM |  | > 10 µM |  | > 10 µM
O=[N+]([O-])c1cc(F)c2cccnc2c1O | 4.63 µM | > 100 µM | 7.73 µM | > 100 µM | 3.44 µM | > 100 µM | 6.93 µM | > 100 µM | 22.1 µM | > 100 µM | 7.56 µM | 40.9 µM | 6.73 µM | > 100 µM | 10.2 µM | 94.6 µM | 7.95 µM | > 100 µM | 11.3 µM | > 100 µM
O=S(=O)(O)ONC1=NCCN1 | 76.6 µM | > 100 µM | 94.2 µM | > 100 µM | 72.5 µM | > 100 µM | 65.1 µM | > 100 µM | > 100 µM | > 100 µM | > 100 µM | > 100 µM | > 100 µM | > 100 µM | 90.6 µM | > 100 µM | > 100 µM | > 100 µM | > 100 µM | > 100 µM
c1ccc2nc(OCCN3CC3)ccc2c1 | 4.05 µM | > 100 µM | 12.9 µM | 35.8 µM | 1.97 µM | 5.43 µM | 2.39 µM | 15.5 µM | 11.8 µM | 29.5 µM | 8.15 µM | 23.9 µM | 13.3 µM | 46.1 µM | 14.3 µM | 37.3 µM | 4.37 µM | 16.5 µM | 14 µM | 31.4 µM
O=C1c2ccn(CCCCN3CCC(O)CC3)c2C(=O)c2c1c(O)c1ccccc1c2O | 8.04 µM |  | 1.97 µM | 3.84 µM | 4.48 µM | > 100 µM | 1.84 µM |  | 15.2 µM | 34.9 µM | 1.95 µM | 3.69 µM | 2.68 µM | 8.83 µM | 13.1 µM | 31.1 µM | 1.96 µM | 5.2 µM | 25.6 µM | 75.3 µM
CCCCCCNC(=O)Oc1ccc(/C(=C(\C)c2ccccc2)c2ccc(OCCN(CC)CC)cc2)cc1 | 1.1 µM | 2.96 µM | 5.17 µM | 11.6 µM | 1.3 µM | 3.26 µM | 2.08 µM | 7.39 µM | 4.93 µM | 10.9 µM | 1.11 µM | 2.38 µM | 1.31 µM | 3.68 µM | 1.5 µM | 5.33 µM | 2.84 µM | 10 µM | 6.02 µM | 12.9 µM
Cc1cc(O)cc2c1c(=O)c1ccccc1n2C |  | > 100 µM |  | > 100 µM |  | > 100 µM |  | > 100 µM |  | > 100 µM |  | > 100 µM |  | > 100 µM |  | > 100 µM |  | > 100 µM |  | > 100 µM
CC(=O)N1CCN(CCOc2ccc(C3CCN(C4=Nn5c(nnc5C(F)(F)F)CC4)CC3)cc2)CC1 | 11.4 µM | > 100 µM | 11.4 µM | > 100 µM | > 100 µM | > 100 µM | 15.7 µM | > 100 µM | 14.5 µM | > 100 µM | 11.1 µM | > 100 µM | 14 µM | > 100 µM | 25.1 µM | > 100 µM | 31.5 µM | > 100 µM | 36 µM | > 100 µM
CCOC(=O)c1ccccc1-c1c2ccc(=[N+](C)C)cc-2oc2cc(N(C)C)ccc12 | 0.388 µM | 4.41 µM | 0.231 µM | 11.9 µM | 0.261 µM | 17.4 µM | 0.257 µM | 13.1 µM | 0.171 µM | 4.31 µM | 0.448 µM | 10.9 µM | 2.96 µM | > 37.2 µM | 0.94 µM | > 36.5 µM | 0.196 µM | 10.9 µM | 0.195 µM | > 22.8 µM
O=[As]c1ccc(C(=O)c2ccc(Oc3ccccc3)cc2)cc1 (configuration not stated) | 0.0246 µM | 0.0796 µM | 0.0751 µM | 0.242 µM | 0.0248 µM | 0.111 µM | 0.0415 µM | 0.152 µM | 0.0407 µM | 0.148 µM | 0.0695 µM | 0.202 µM | 0.0362 µM | 0.15 µM | 0.0576 µM | 0.166 µM | 0.0532 µM | 0.177 µM | 0.0389 µM | 0.146 µM
CCCCCc1c(C)[nH]c(/C=C2\N=C(c3ccc[nH]3)C=C2OCc2ccccc2)c1C | 0.0195 µM and 0.0117 µM | 0.0458 µM and 0.0377 µM | 0.116 µM and 0.0563 µM | 2.23 µM and 0.627 µM | 0.0369 µM and 0.0295 µM | 1.21 µM and 0.322 µM | 0.0343 µM and 0.0186 µM | 0.189 µM and 0.133 µM | 0.0703 µM and 0.0458 µM | 1.43 µM and 0.268 µM | 0.0296 µM and 0.0252 µM | 0.0823 µM and 0.0748 µM | 0.0368 µM and 0.0246 µM | 0.279 µM and 0.15 µM | 0.052 µM and 0.0348 µM | 0.378 µM and 0.226 µM | 0.0352 µM and 0.0246 µM | 1.04 µM and 0.262 µM | 0.0489 µM and 0.039 µM | 1.23 µM and 0.172 µM
COc1cccc(C2=C(c3cn(C)c4cccc(OC)c34)C(=O)NC2=O)c1 | 17.1 µM | > 25 µM | 19.6 µM | > 25 µM | 6.89 µM | > 25 µM | 9.55 µM | > 25 µM | 15.1 µM | > 25 µM | 7.98 µM | > 25 µM | 3.41 µM | > 25 µM | 17.9 µM | > 25 µM | 6.01 µM | > 25 µM | 18.5 µM | > 25 µM
COc1ccc(C(=O)O/N=C2/CCC/C2=C\c2ccccc2)cc1 |  | > 100 µM |  | > 100 µM |  | > 100 µM |  | > 100 µM |  | > 100 µM |  | > 100 µM |  | > 100 µM |  | > 100 µM |  | > 100 µM |  | > 100 µM
Cn1cc(NC(=O)c2cc(NC(=O)CCCCCCC(=O)Nc3cc(C(=O)Nc4cc(C(=O)NCCC(=N)N)n(C)c4)n(C)c3)cn2C)cc1C(=O)NCCC(=N)N |  | 18.5 µM |  | 15.3 µM |  | > 100 µM |  | 41.6 µM |  | 33.1 µM |  | 33.9 µM |  | > 100 µM |  | 33.8 µM |  | 13.3 µM |  | 43.2 µM
CO[C@H](C(=O)O)[C@@H]1Cc2cc3cc(OC4CC(OC5CC(O)C(O)C(C)O5)C(O)C(C)O4)c(C)c(O)c3c(O)c2C(=O)[C@H]1OC1CC(OC2CC(OC3CC(C)(O)C(O)C(C)O3)C(O)C(C)O2)C(O)C(C)O1 (some centres not stated) | 0.114 µM | 1.48 µM | 0.211 µM | 2.67 µM | 0.245 µM | > 32.5 µM | 0.132 µM | > 32.5 µM | 0.179 µM | > 32.5 µM | 0.443 µM | 3.59 µM | 1.66 µM | > 32.5 µM | 0.213 µM | > 32.5 µM | 0.233 µM | 2.59 µM | 0.284 µM | > 32.5 µM
O=C(Nc1ccc(I)cc1F)c1cc(I)ccc1O | 0.38 µM | 1.67 µM | 0.531 µM | 2.25 µM | 0.866 µM | > 36 µM | 0.768 µM | 3.35 µM | 0.511 µM |  | 0.773 µM | 3.75 µM | 0.452 µM | 19.7 µM | 1.03 µM | 9.51 µM | 1.01 µM | 3.85 µM | 0.802 µM | > 100 µM
NCP(=O)(O)OCC(=O)O |  | > 100 µM |  | > 100 µM |  | > 100 µM |  | > 100 µM |  | > 100 µM |  | > 100 µM |  | > 100 µM |  | > 100 µM |  | > 100 µM |  | > 100 µM
